Test results taken from patent US7349080B2, “Label-independent detection of unpurified analytes” (Corning Incorporated, priority 2004, dated 2008).

Experiment: Label-independent detection (LID) of binding to immobilized biotin on a grating-coupled waveguide microplate
From the text: A label-independent detection (LID) system developed by Corning Inc. was used to evaluate interactions between unlabeled streptavidin and immobilized biotin. This LID system is comprised of a multi-well optical reader and a disposable microplate (e.g., a 96- or 384-well microplate). Each well of the microplate contains a grating-coupled waveguide for evanescent field sensing. The sensing surface has a surface chemistry layer allowing for attachment of molecules that contain primary amine groups (e.g., biotin-amine). As streptavidin or other analytes of interest bind to the sensing surface, the refractive index at the surface is changed. An optical mode propagates and senses the refractive index changes close to the sensing surface. Only light that is “resonant” is strongly reflected, and the exact wavelength of the resonance is a sensitive function of the refractive index at the surface of the sensor. In a typical operation, a baseline read of the microplate is first established. Addition of a binding partner results in a change in refractive index at the sensing surface, which is indicated as picometer (pm) shift from baseline. Each microplate is read on the optical reader before, during, and after the addition of the binding partner. Resonant wavelength shift (“Response (pm)”) is plotted as a function of time. Cell lysate was prepared by diluting a 2 mg/ml stock to 100 μg/ml final concentration. A Corning 96-well clear polystyrene non-treated flat bottom plate (Corning catalog # 3370) was used for source plate preparation. To facilitate efficient pickup of the sample solutions by a multi-channel robotic pipettor in the LID instrument, each well of the source plate contained extra solution. A solution of 1× phosphate buffered saline (PBS; 1 mM KH2PO4, 10 mM Na2HPO4, 137 mM NaCl, and 2.7 mM KCl) was used as a first addition step for baseline measure. […] Interactions between purified streptavidin and immobilized biotin were first evaluated (FIG. 2). […] PBS was added to establish a baseline read (before point A). […]

| effect of post wash on binding of streptavidin to biotin (PBS wash after point C, corrected response curve, FIG. 3) | bulk index shift (Response (pm)) due to binding to the immobilized biotin (purified streptavidin 200 nM in 1x PBS, between points A and B, FIG. 2) | Compound | binding to the target area (ethanolamine in borate buffer, between points B and C, corrected response curve, FIG. 3) |
| --- | --- | --- | --- |
| – | – | NCCO [Ethanolamine, ethanolamine] | did not appear to bind to the target area |
| did not disrupt the binding | increase in the bulk index | streptavidin | – |
